Measured values published in ChEMBL document CHEMBL4130472, “Synthesis of naphthazarin derivatives and identification of novel thioredoxin reductase inhibitor as potential anticancer agent” (Eur J Med Chem, 2017).
Numbering of substitutions follows the chain as printed. Calls of active or inactive are those of the source. The rule behind the calls is not given here.

Columns and labels:
[1] = tested on: HL-60; experiment: Cytotoxicity in human HL60 cells assessed as cell viability at 20 uM incubated for 48 hrs by MTT assay; format: functional; settings: HL-60, 48 h, read-out: Activity
[2] = tested on: HL-60; experiment: Cytotoxicity in human HL60 cells assessed as reduction in cell viability incubated for 48 hrs by MTT assay; format: functional, cell-based; settings: HL-60, 48 h
[3] = tested on: HL-60; experiment: Cytotoxicity in human HL60 cells assessed as reduction in cell viability incubated for 72 hrs by MTT assay; format: functional, cell-based; settings: HL-60, 72 h
[4] = tested on: HL-60; experiment: Effect on TrxR1 protein expression in human HL60 cells at 1 to 5 uM incubated for 24 hrs by Western blot; format: ADME, cell-based; settings: hl-60, 24 h
[5] = tested on: HEK-293T; experiment: Cytotoxicity in HEK293T cells overexpressing TrxR1 (unknown origin) cells assessed as reduction in cell viability at 1 to 5 uM incubated for 48 hrs by MTT assay; format: functional, cell-based; settings: Homo sapiens
[6] = tested on: HL-60; experiment: Cytotoxicity in human HL60 cells assessed as reduction in cell viability incubated for 48 hrs by trypan blue dye exclusion assay; format: functional, cell-based; settings: HL-60, 48 h
[7] = tested on: HepG2; experiment: Cytotoxicity in human HepG2 cells assessed as reduction in cell viability at 1 to 5 uM incubated for 48 hrs by MTT assay; format: functional, cell-based
[8] = tested on: A549; experiment: Cytotoxicity in human A549 cells assessed as reduction in cell viability at 1 to 5 uM incubated for 48 hrs by MTT assay; format: functional, cell-based
[9] = tested on: HeLa; experiment: Cytotoxicity in human HeLa cells assessed as reduction in cell viability at 1 to 5 uM incubated for 48 hrs by MTT assay; format: functional, cell-based
[10] = tested on: HEK-293T; experiment: Cytotoxicity in human HEK293T cells assessed as reduction in cell viability at 1 to 5 uM incubated for 48 hrs by MTT assay; format: cell-based
[11] = tested on: L02; experiment: Cytotoxicity in human L02 cells assessed as reduction in cell viability at 1 to 5 uM incubated for 48 hrs by MTT assay; format: cell-based; settings: l02, 48 h
[12] = biological target: T1, Thioredoxin reductase 1, cytoplasmic (Rattus norvegicus) (UniProt O89049); experiment: (§1) Inhibition of NADPH-reduced rat TrxR1 assessed as suppression of DTNB reduction incubated for 1 hr
T1 sequence (whole entry): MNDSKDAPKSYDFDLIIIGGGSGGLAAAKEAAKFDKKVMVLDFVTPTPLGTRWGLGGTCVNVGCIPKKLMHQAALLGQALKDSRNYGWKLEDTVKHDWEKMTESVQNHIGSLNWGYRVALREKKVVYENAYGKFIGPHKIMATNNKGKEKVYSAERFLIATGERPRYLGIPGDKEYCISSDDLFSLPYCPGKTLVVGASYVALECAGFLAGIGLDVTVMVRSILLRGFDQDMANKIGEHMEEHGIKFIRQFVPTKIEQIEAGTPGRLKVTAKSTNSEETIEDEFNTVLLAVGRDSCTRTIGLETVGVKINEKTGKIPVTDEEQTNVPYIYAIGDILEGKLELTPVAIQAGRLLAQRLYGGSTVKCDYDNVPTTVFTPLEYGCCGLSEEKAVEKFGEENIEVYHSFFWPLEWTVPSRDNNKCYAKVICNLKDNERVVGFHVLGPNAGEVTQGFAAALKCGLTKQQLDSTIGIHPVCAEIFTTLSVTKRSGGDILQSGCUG

[13] = biological target: T2, Thioredoxin reductase 1, cytoplasmic (Rattus norvegicus, UniProt O89049); experiment: as §1
T2 sequence (O89049 whole entry): T1 sequence (whole entry)

[14] = biological target: T1, Thioredoxin reductase 1, cytoplasmic (Rattus norvegicus); experiment: Irreversible inhibition of NADPH-reduced rat TrxR1 assessed as suppression of DTNB reduction incubated for 1 hr followed by compound removal from incubation mixture by column desalting
[15] = tested on: T3, Thioredoxin reductase 1, cytoplasmic (Rattus norvegicus), O89049 [U498C]; experiment: Inhibition of NADPH-reduced rat TrxR1 U498C mutant assessed as suppression of DTNB reduction at 1 to 5 uM incubated for 1 hr
T3 sequence (whole entry): T1 sequence (whole entry) with U498C

[16] = biological target: T4, Glutathione reductase (Rattus norvegicus) (UniProt P70619); experiment: Inhibition of NADPH-reduced rat glutathione reductase at 1 to 5 uM incubated for 1 hr in presence of NADPH and GSSG
T4 sequence (whole entry): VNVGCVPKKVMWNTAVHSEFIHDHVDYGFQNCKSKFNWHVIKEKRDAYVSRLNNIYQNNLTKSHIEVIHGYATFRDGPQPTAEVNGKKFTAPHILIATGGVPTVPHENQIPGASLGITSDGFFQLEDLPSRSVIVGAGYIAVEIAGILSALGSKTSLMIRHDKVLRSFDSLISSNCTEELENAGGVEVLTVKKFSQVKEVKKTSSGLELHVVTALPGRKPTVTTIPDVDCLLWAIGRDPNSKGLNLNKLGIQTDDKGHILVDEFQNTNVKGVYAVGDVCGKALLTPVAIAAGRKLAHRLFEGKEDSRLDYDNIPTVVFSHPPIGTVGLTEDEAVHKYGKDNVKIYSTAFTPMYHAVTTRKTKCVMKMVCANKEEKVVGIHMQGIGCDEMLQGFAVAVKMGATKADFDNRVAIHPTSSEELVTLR

[17] = biological target: T5, Thioredoxin reductase 1, cytoplasmic (Homo sapiens) (UniProt Q16881); experiment: Inhibition of TrxR1 in human HL60 cells incubated for 12 hrs by TRFS-green dye based fluorescence assay; format: cell-based
T5 sequence (whole entry): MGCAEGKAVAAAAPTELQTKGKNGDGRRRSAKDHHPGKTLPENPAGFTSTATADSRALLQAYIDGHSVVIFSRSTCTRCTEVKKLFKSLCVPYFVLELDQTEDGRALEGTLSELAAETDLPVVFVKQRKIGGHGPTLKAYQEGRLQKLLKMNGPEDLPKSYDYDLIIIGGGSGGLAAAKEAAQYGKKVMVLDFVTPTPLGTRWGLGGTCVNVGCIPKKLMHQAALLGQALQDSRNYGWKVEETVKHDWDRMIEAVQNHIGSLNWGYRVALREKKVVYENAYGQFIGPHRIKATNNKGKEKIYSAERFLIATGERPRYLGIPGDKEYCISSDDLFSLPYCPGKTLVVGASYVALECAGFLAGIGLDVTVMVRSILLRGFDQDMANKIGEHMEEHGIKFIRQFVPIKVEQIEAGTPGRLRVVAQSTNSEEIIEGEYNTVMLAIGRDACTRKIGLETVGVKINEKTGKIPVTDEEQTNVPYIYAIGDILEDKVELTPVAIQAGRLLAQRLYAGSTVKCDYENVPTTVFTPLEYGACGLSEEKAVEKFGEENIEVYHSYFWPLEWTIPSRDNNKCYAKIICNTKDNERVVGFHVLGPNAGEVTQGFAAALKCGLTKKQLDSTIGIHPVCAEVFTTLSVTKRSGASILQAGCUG

[18] = biological target: T6, Thioredoxin reductase 1, cytoplasmic (Homo sapiens, UniProt Q16881); experiment: Inhibition of TrxR1 in human HL60 cells incubated for 24 hrs by endpoint insulin reduction assay; format: cell-based
T6 sequence (Q16881 whole entry): T5 sequence (whole entry)

[19] = tested on: HEK-293T; experiment: Cytotoxicity in HEK293T cells transfected with pIRESneo construct assessed as reduction in cell viability at 1 to 5 uM incubated for 48 hrs by MTT assay; format: functional, cell-based; settings: Homo sapiens
[20] = tested on: HeLa; experiment: Cytotoxicity in human HeLa cells transfected with non targetting vector assessed as reduction in cell viability at 1 to 5 uM incubated for 48 hrs by MTT assay; format: functional, cell-based
[21] = tested on: HeLa; experiment: Cytotoxicity in human HeLa cells transfected with shTrxR1 assessed as reduction in cell viability at 1 to 5 uM incubated for 48 hrs by MTT assay; format: functional, cell-based
[22] = tested on: HL-60; experiment: Induction of ROS production in human HL60 cells at 1 to 5 uM incubated for 1 hr by DCFH-DA staining based fluorescence assay; format: functional, cell-based
[23] = tested on: HL-60; experiment: Induction of ROS production in human HL60 cells at 1 to 5 uM incubated for 1 hr by DHE staining based fluorescence assay; format: functional, cell-based
[24] = tested on: HL-60; experiment: Reduction in intracellular thiols in human HL60 cells at 1 to 5 uM incubated for 24 hrs by DTNB titration method; format: functional, cell-based
[25] = tested on: HL-60; experiment: Reduction in GSH/GSSG ratio in human HL60 cells at 1 to 5 uM incubated for 24 hrs by enzymatic recycling method; format: functional, cell-based
[26] = tested on: HL-60; experiment: Cytotoxicity in human HL60 cells assessed as induction of cell death at 1 uM incubated for 24 hrs by MTT assay; format: functional
[27] = tested on: HL-60; experiment: Potentiation of H2O2-induced cytotoxicity in human HL60 cells assessed as induction of cell death at 1 uM incubated for 24 hrs by MTT assay (reference value: 4%); format: functional
[28] = tested on: HL-60; experiment: Potentiation of H2O2-induced cytotoxicity in human HL60 cells assessed as induction of cell death at 3 uM incubated for 24 hrs by MTT assay; format: functional, cell-based
[29] = tested on: HL-60; experiment: Cytotoxicity in human HL60 cells assessed as cell viability at 1 to 5 uM incubated for 24 hrs by MTT assay; format: functional, cell-based
[30] = tested on: HL-60; experiment: Cytotoxicity in human HL60 cells assessed as cell viability at 1 to 5 uM incubated for 24 hrs after pre-treatment with […] before compound addition by MTT assay; format: functional, cell-based
[31] = tested on: HL-60; experiment: Cytotoxicity in human HL60 cells assessed as cell viability at 1 to 5 uM incubated for 48 hrs after 24 hrs pre-treatment with 50 uM BSO before compound addition by MTT assay; format: functional, cell-based
[32] = tested on: HL-60; experiment: Induction of apoptosis in human HL60 cells assessed as increase in caspase-3 activity at 1 to 3 uM incubated for 24 hrs using Ac-DEVD-pNA substrate by colorimetric assay; format: functional, cell-based
[33] = tested on: HL-60; experiment: Induction of apoptosis in human HL60 cells assessed as increase in caspase-3 activity at 5 uM incubated for 24 hrs using Ac-DEVD-pNA substrate by colorimetric assay; format: functional, cell-based
[34] = tested on: HL-60; experiment: Induction of apoptosis in human HL60 cells assessed as increase in condensed and fluorescent nuclei at 1 to 5 uM incubated for 24 hrs by Hoechst 33342 staining based phase contrast and fluorescence microscopy; format: functional, cell-based
[35] = tested on: HL-60; experiment: Induction of apoptosis in human HL60 cells 0.5 uM incubated for 24 hrs by Annexin V/propidium iodide staining based flow cytometry; format: functional
[36] = tested on: HL-60; experiment: Induction of apoptosis in human HL60 cells 1 uM incubated for 24 hrs by Annexin V/propidium iodide staining based flow cytometry; format: functional
[37] = tested on: HL-60; experiment: Induction of apoptosis in human HL60 cells 3 uM incubated for 24 hrs by Annexin V/propidium iodide staining based flow cytometry; format: functional
[38] = tested on: HL-60; experiment: Induction of apoptosis in human HL60 cells 5 uM incubated for 24 hrs by Annexin V/propidium iodide staining based flow cytometry; format: functional
[39] = tested on: HL-60; experiment: Induction of apoptosis in human HL60 cells 0.5 to 5 uM incubated for 24 hrs in presence of NAC by Annexin V/propidium iodide staining based flow cytometry; format: functional, cell-based
[40] = tested on: HL-60; experiment: Induction of necrosis in human HL60 cells 5 uM incubated for 24 hrs by Annexin V/propidium iodide staining based flow cytometry; format: functional, cell-based

Question: `CNC1=CC(=O)c2c(O)ccc(O)c2C1=O` was tested. Which viability at 20 µM [1] did it give?
Answer: 63%

Question: For `O=C1C=CC(=O)c2c(O)ccc(O)c21` [NAPHTHAZALIN], which viability at 20 µM [1] is on record?
Answer: 0%

Question: What about the IC50 [2] of the same molecule?
Answer: 930 nM

Question: And the IC50 [3]?
Answer: 800 nM

Question: How did the viability at 20 µM [1] turn out when `O=C1C=C(NCCO)C(=O)c2c(O)ccc(O)c21` was run?
Answer: 50.3%

Question: How did the viability at 20 µM [1] turn out when `O=C1C=CC(=O)c2c(Cl)ccc(O)c21` was run?
Answer: 23.1%

Question: With `CCC(C)NC1=CC(=O)c2c(O)ccc(O)c2C1=O` (centres undefined) as the molecule, how does the viability at 20 µM [1] read?
Answer: 57%

Question: What does the source list for `CC1=CC(=O)c2c(O)ccc(O)c2C1=O`?
Answer: Activity [4]: Non-Toxic; Activity [5]: inactive; viability at 20 µM [1]: 0%; IC50 [2]: 720 nM; IC50 [3]: 640 nM; IC50 [6]: 860 nM; Activity [7]: Active; Activity [8]: Active; Activity [9]: Active; Activity [10]: Non-Toxic; Activity [11]: Non-Toxic; inhibition [12]: Dose-dependent effect; IC50 [13]: 700 nM; inhibition [14]: Active; inhibition [15]: inactive; inhibition [16]: inactive; inhibition [17]: Dose-dependent effect; IC50 [18]: 2400 nM; Activity [19]: Active; Activity [20]: Active; Activity [21]: Active; Activity [22]: Active; Activity [23]: Dose-dependent effect; Activity [24]: Active; Activity [25]: Dose-dependent effect; Activity [26]: 27%; Activity [27]: >43%; Activity [28]: Active; Activity [29]: Active; Activity [30]: inactive; Activity [31]: Active; Activity [32]: Active; Activity [33]: inactive; Activity [34]: Active; Activity [35]: 10%; Activity [36]: 23%; Activity [37]: 42%; Activity [38]: 56%; Activity [39]: inactive; Activity [40]: Active

Question: How did the viability at 20 µM [1] turn out when `CCCCNC1=CC(=O)c2c(O)ccc(O)c2C1=O` was run?
Answer: 59.2%

Question: How did the viability at 20 µM [1] turn out when `CC(C)CCNC1=CC(=O)c2c(O)ccc(O)c2C1=O` was run?
Answer: 54.3%
